The values below come from patent US20040121946A9, “Inducing cellular immune responses to her2/neu using peptide and nucleic acid compositions” (priority 2002, published 2004).

Like-named read-outs stand apart in the source and are kept apart here. Where a SMILES comes first, the peptide text is derived from it. Where no end group is shown, it is not given here. [ ]: non-standard residue; d: D form. Abu = CC[C@H](N)C(=O)O

For one test, the target named is HLA-A*0101 (Homo sapiens, UniProt P04439, A114D/A174V/A182V/D101N/D185E/E176A/E190D/L180R/Q94H/R68K/S129P/T187R/V100A/V91M/W191G). The format is binding. As to conditions: Table XXV, HLA-A1 motif-bearing peptides.
For another test, the target named is HLA-A*0201 (Homo sapiens, UniProt P04439, D140Y/D185E/D98H/E176V/E277Q/G131W/G231S/I119V/I121R/I166T/I218V/L300P/L318F/N151K/N90K/P208A/P217A/Q86G/Q94H/R138H/R169H/T345S). The format is binding. The settings on record: Table XXII, A2 supermotif peptides and analogs.
The subject of test [1] is tumor targets that endogenously express HER2/neu (colon adenocarcinoma cell lines SW403 and HT-29). Briefly: Primary in vitro CTL induction, recognition of wild-type peptide and endogenous tumor targets (51Cr release / in situ IFNγ ELISA). The format is cell-based, human. As to conditions: in vitro, expanded positive cultures.
A further test concerns the target HLA-A*0203 (Homo sapiens, UniProt P04439, A173T/D140Y/D185E/D98H/E277Q/G131W/G231S/I119V/I121R/I166T/I218V/L180W/L300P/L318F/N151K/N90K/P208A/P217A/Q86G/Q94H/R138H/R169H/T345S). The format is binding. As to conditions: Table XXII, A2 supermotif peptides and analogs.
The target of the next test is HLA-A*0206 (Homo sapiens, UniProt P04439, D140Y/D185E/D98H/E176V/E277Q/F33Y/G131W/G231S/I119V/I121R/I166T/I218V/L300P/L318F/N151K/N90K/P208A/P217A/Q86G/Q94H/R138H/R169H/T345S). It is filed as binding. The settings on record: Table XXII, A2 supermotif peptides and analogs.
In test [2] the test system is .221A2.1 cell line, peptide-loaded target. Description: Primary in vitro CTL induction, peptide-specific recognition (51Cr release / in situ IFNγ ELISA). It is filed as cell-based, human. As to conditions: normal donors, peptide-pulsed targets. Here is the method:
The colon adenocarcinoma cell lines SW403 and HT-29 were obtained from the American Type Culture Collection (ATCC) (Rockville, Md.). The cell lines that were obtained from ATCC were maintained under the culture conditions recommended by the supplier. […] The colon cancer cells were treated with 100U/ml IFNγ (Genzyme) for 48 hours at 37° C. before use as targets in the ^51Cr release and in situ IFNγ assays.
The monocytes were purified by plating 10×10^6 PBMC/well in a 6-well plate. After 2 hours at 37° C., the non-adherent cells were removed by gently shaking the plates and aspirating the supernatants. The wells were washed a total of three times with 3 ml RPMI to remove most of the non-adherent and loosely adherent cells. Three ml of complete medium containing 50 ng/ml of GM-CSF and 1,000 U/ml of IL-4 were then added to each well. DC were used for CTL induction cultures following 7 days of culture.
Induction of CTL with DC and Peptide: CD8+ T-cells were isolated by positive selection with Dynal immunomagnetic beads (Dynabeads® M-450) and the detacha-bead® reagent. Typically about 200-250×10^6 PBMC were processed to obtain 24×10^6 CD8^+ T-cells (enough for a 48-well plate culture). Briefly, the PBMCs were thawed in RPMI with 30 μg/ml DNAse, washed once with PBS containing 1% human AB serum and resuspended in PBS/1% AB serum at a concentration of 20×10^6cells/ml. The magnetic beads were washed 3 times with PBS/AB serum, added to the cells (140 μl beads/20×10^6 cells) and incubated for 1 hour at 4° C. with continuous mixing. The beads and cells were washed 4× with PBS/AB serum to remove the nonadherent cells and resuspended at 100×10^6 cells/ml (based on the original cell number) in PBS/AB serum containing 100 μl/ml detacha-bead® reagent and 30 μg/ml DNAse. The mixture is incubated for 1 hour at room temperature with continuous mixing. The beads were washed again with PBS/AB/DNAse to collect the CD8+ T-cells. The DC were collected and centrifuged at 1300 rpm for 5-7 minutes, washed once with PBS with 1% BSA, counted and pulsed with 40 μg/ml of peptide at a cell concentration of 1-2×10^6/ml in the presence of 3 μg/ml β2-microglobulin for 4 hours at 20° C. The DC were then irradiated (4,200 rads), washed 1 time with medium and counted again.
Setting up induction cultures: 0.25 ml cytokine-generated DC (@1×10^5 cells/ml) were co-cultured with 0.25 ml of CD8+ T-cells (@2×10^6 cell/ml) in each well of a 48-well plate in the presence of 10 ng/ml of IL-7. rHuman IL10 was added the next day at a final concentration of 10 ng/ml and rhuman IL2 was added 48 hours later at 10 IU/ml.
Restimulation of the induction cultures with peptide-pulsed adherent cells: Seven and fourteen days after the primary induction the cells were restimulated with peptide-pulsed adherent cells. The PBMCS were thawed and washed twice with RPMI and DNAse. The cells were resuspended at 5×10^6 cells/ml and irradiated at ˜4200 rads. The PBMCs were plated at 2×10^6 in 0.5 ml complete medium per well and incubated for 2 hours at 37° C. The plates were washed twice with RPMI by tapping the plate gently to remove the nonadherent cells and the adherent cells pulsed with 10 μg/ml of peptide in the presence of 3 μg/ml β2 microglobulin in 0.25 ml RPMI/5%AB per well for 2 hours at 37° C. Peptide solution from each well was aspirated and the wells were washed once with RPMI. Most of the media was aspirated from the induction cultures (CD8+ cells) and brought to 0.5 ml with fresh media. […]
In general terms: An ELISA detects its analyte on a solid surface through an enzyme-linked reagent.

The target of another test is HLA-A*2402 (Homo sapiens, UniProt P04439, D101N/D140Y/D185E/E176V/E190D/F33S/G103R/G107R/I119L/I121M/I306V/K335N/L105A/L180Q/L300P/N151K/N90K/Q86E/Q94H/R106L/R138H/R89G/T104I/T345S/V100E/W191G/Y123F). It is filed as binding. The settings on record: HLA-A24 motif-bearing peptides, Table XXVI.

Description for HLA-A*2402: The corresponding peptide sequence are then synthesized and tested for binding to the appropriate allele-specific HLA molecule, HLA-A1 or HLA-24.

`CC(C)[C@H](NC(=O)[C@H](CS)NC(=O)[C@H](CCC(N)=O)NC(=O)[C@H](CC(=O)O)NC(=O)[C@H](C)NC(=O)[C@@H](N)CCC(=O)O)C(=O)N[C@@H](C)C(=O)N[C@@H](CS)C(=O)N[C@@H](C)C(=O)N[C@@H](Cc1c[nH]cn1)C(=O)N[C@@H](Cc1ccc(O)cc1)C(=O)O` [Her2/neu.580] had an IC50 at HLA-A*0101 of 250 nM.

For `CC(C)[C@H](NC(=O)[C@H](CS)NC(=O)[C@@H](NC(=O)[C@H](C)N)[C@@H](C)O)C(=O)N[C@H](C(=O)N[C@@H](C)C(=O)N[C@@H](CS)C(=O)N1CCC[C@H]1C(=O)N[C@@H](Cc1ccc(O)cc1)C(=O)O)[C@@H](C)O` [Her2/neu.293.T2], the IC50 on HLA-A*0101 (read-out: A*[…]) was 49 nM. `CC[C@H](NC(=O)[C@H](CCCCN)NC(=O)[C@@H](NC(=O)[C@H](CCSC)NC(=O)[C@@H](NC(=O)[C@H](CC(C)C)NC(=O)[C@@H](N)Cc1ccc(O)cc1)[C@@H](C)CC)C(C)C)C(=O)N[C@@H](Cc1c[nH]c2ccccc12)C(=O)N[C@@H](CCSC)C(=O)N[C@H](C(=O)O)C(C)C` [Her2/neu.952L2B7V10] (H-YLIMVK[Abu]WMV-OH): the IC50 came out at 7.2 nM against HLA-A*0201, 77 nM at HLA-A*0203 and 11 nM on HLA-A*0206. Also, the “recognition of wild-type peptide and of tumor targets endogenously expressing HER2/neu by induced CTL” value in test [1] is “no wild-type peptide or endogenous recognition was observed”. Besides, the “induction of peptide-specific CTL” value in test [2] was “induced peptide-specific CTLs in at least 2 donors”. RWGLLLAL [RWGLLLAL] registered an IC50 against HLA-A*2402 of 480 nM. TYLPTNASL registered an IC50 against HLA-A*2402 of 316 nM.
